The text below walks through data of PubChem BioAssay AID493062 (The Scripps Research Institute Molecular Screening Center, 2011).

For orientation: pEC50 means −log10 of the EC50, conventionally taken in molar units.

Experiment [1] deals with 2B4/MCL-1. The experiment is described as follows: caspase activation in 2B4/MCL-1 versus 2B4/BCL-2 cells, late-stage follow-up, selectivity assay for MCL1-BIM inhibitor project, cell-based, fluorescence, assay provider data (AID 493062). Conditions: 2B4/MCL-1 caspase activation fluorescence.
Experiment [2] has as its system 2B4/BCL-2. The description is as above. Conditions: 2B4/MCL-1 caspase activation fluorescence.

Molecules are shown by their SMILES. pEC50: −log10 of the molar value.

On to `COc1ccc(NC(=O)c2cc(-c3ccco3)nc3ccccc23)cc1`, for which the pEC50 in experiment [1] and in experiment [2] was under 4.60 throughout.

Take `Cc1ccc(-c2cc(C(=O)N3CCN(c4ccc(F)cc4)CC3)c3ccccc3n2)o1`: the pEC50 in experiment [1] and in experiment [2] was under 4.60 each time.

With `COc1cccc(CC(=O)Nc2nnc(Cc3ccc(OC)c(OC)c3)s2)c1`, the pEC50 in experiment [1] and in experiment [2] was under 4.60 each time.

As to `CN(CCOc1ccccc1)C(=O)c1cc(-c2ccco2)nc2ccccc12`, the pEC50 in experiment [1] and in experiment [2] was under 4.60 each time.

Regarding `COCCCN(C(=O)c1cc(-c2ccco2)nc2ccccc12)c1c(N)n(Cc2ccccc2)c(=O)[nH]c1=O`, the pEC50 in experiment [1] and in experiment [2] was under 4.60 each time.

Take `Cc1ccnc(NC(=O)c2cc(-c3ccco3)nc3ccc(Br)cc23)c1`: the pEC50 in experiment [1] was 4.92; in experiment [2] it was under 4.60.

Turning to `COc1ccc(NC(=O)c2cc(-c3ccc(C)o3)nc3ccccc23)c(OC)c1`, the pEC50 in experiment [1] and in experiment [2] was under 4.60 throughout.

Take `COc1ccc(Cc2nnc(NC(=O)Cc3cc(F)cc(F)c3)s2)cc1OC`: the negative logarithm of the EC50 (pEC50) in experiment [1] and in experiment [2] was under 4.60 in each case.

As to `COc1ccc(Cc2nnc(NC(=O)C(F)c3ccccc3)s2)cc1OC` (stereo not given), the pEC50 in experiment [1] and in experiment [2] was under 4.60 in each case.

On to `COc1ccc(-c2cc(=O)oc3cc(OCC(=O)N4CC4)ccc23)cc1`, for which the pEC50 in experiment [1] and in experiment [2] was under 4.60 each time.

`Cc1ccc(-c2cc(C(=O)N3CCN(c4ccccc4O)CC3)c3ccccc3n2)o1`: the pEC50 in experiment [1] and in experiment [2] was under 4.60 each time.

Regarding `O=C(NCC1CCCO1)c1cc(-c2ccco2)nc2ccccc12` (stereo not given), the pEC50 in experiment [1] and in experiment [2] was under 4.60 throughout.

As to `CCOC(=O)c1cc(-c2ccco2)nc2c1c(C)nn2-c1ccccc1`, the negative logarithm of the EC50 (pEC50) in experiment [1] and in experiment [2] was under 4.60 each time.

For the compound `O=C(Nc1nc2ccccc2s1)c1cc(-c2ccco2)nc2ccccc12`, the negative-log EC50 (pEC50) in experiment [1] and in experiment [2] was under 4.60 each time.

With `CC(C)CCNC(=O)c1cc(-c2ccco2)nc2ccccc12`, the pEC50 in experiment [1] and in experiment [2] was under 4.60 each time.

On to `CCc1nnc(NC(=O)c2cc(-c3ccc(C)o3)nc3ccccc23)s1`, for which the pEC50 in experiment [1] and in experiment [2] was under 4.60 throughout.

For `O=C(NC1CC1)c1cc(-c2ccco2)nc2ccccc12`, the negative logarithm of the EC50 (pEC50) in experiment [1] and in experiment [2] was under 4.60 in each case.

Consider `CN(CC(=O)Nc1cccc(F)c1)C(=O)c1cc(-c2ccco2)nc2ccccc12`, for which the pEC50 in experiment [1] and in experiment [2] was under 4.60 in each case.

As to `CN(CCOc1ccc(Cl)cc1)C(=O)c1cc(-c2ccco2)nc2ccccc12`, the pEC50 in experiment [1] and in experiment [2] was under 4.60 in each case.

Consider `CCCCCCNC(=O)c1cc(-c2ccco2)nc2ccccc12`, for which the pEC50 in experiment [1] and in experiment [2] was under 4.60 in each case.

As to `COc1ccc(Cc2nnc(NC(=O)c3cc(-c4ccco4)nc4ccc(Br)cc34)s2)cc1OC`, the pEC50 in experiment [1] was 4.96; in experiment [2] it was 5.12.

As for `CN(C)C(CNC(=O)c1cc(-c2ccco2)nc2ccccc12)c1ccccc1` (stereo not given), the pEC50 in experiment [1] and in experiment [2] was under 4.60 throughout.

For the compound `COc1ccc(Cc2nnc(NC(=O)C3(c4ccccc4)CC3)s2)cc1OC`, the negative-log EC50 (pEC50) in experiment [1] and in experiment [2] was under 4.60 each time.

For the compound `CCOC(=O)C1CCCN(C(=O)c2cc(-c3ccco3)nc3ccccc23)C1` (stereo not given), the pEC50 in experiment [1] and in experiment [2] was under 4.60 in each case.

Turning to `Cc1ccc(-c2cc(C(=O)Nc3ccccn3)c3ccccc3n2)o1`, the negative logarithm of the EC50 (pEC50) in experiment [1] and in experiment [2] was under 4.60 in each case.

Regarding `CCC(=O)Nc1nnc(Cc2ccccc2)s1`, the pEC50 in experiment [1] and in experiment [2] was under 4.60 each time.

Consider `O=C(Nc1ccccc1N1CCOCC1)c1cc(-c2ccco2)nc2ccccc12`, for which the pEC50 in experiment [1] and in experiment [2] was under 4.60 in each case.

Regarding `CC(=O)N1CCN(C(=O)c2cc(-c3ccc(C)o3)nc3ccccc23)CC1`, the pEC50 in experiment [1] and in experiment [2] was under 4.60 each time.

On to `COc1ccc(Cc2nnc(NC(=O)CCc3cccs3)s2)cc1OC`, for which the pEC50 in experiment [1] and in experiment [2] was under 4.60 in each case.

In the case of `CCCCn1c(N)c(N(CCC(C)C)C(=O)c2cc(-c3ccco3)nc3ccccc23)c(=O)[nH]c1=O`, the pEC50 in experiment [1] and in experiment [2] was under 4.60 throughout.

Take `Cc1ccc(-c2cc(C(=O)N(C)CC(=O)Nc3ccccc3Br)c3ccccc3n2)o1`: the pEC50 in experiment [1] and in experiment [2] was under 4.60 in each case.

As to `COc1ccc(Cc2nnc(NC(=O)Cc3csc4ccccc34)s2)cc1OC`, the pEC50 in experiment [1] and in experiment [2] was under 4.60 each time.

`CN(CC(=O)Nc1ccc(F)cc1)C(=O)c1cc(-c2ccco2)nc2ccccc12`: the pEC50 in experiment [1] and in experiment [2] was under 4.60 in each case.

Turning to `Cc1ccc(-c2cc(C(=O)Nc3ccccc3C(N)=O)c3ccccc3n2)o1`, the pEC50 in experiment [1] and in experiment [2] was under 4.60 in each case.

As to `Cc1ccc(-c2cc(C(=O)N3CCCC(C(F)(F)F)C3)c3ccccc3n2)o1` (stereo not given), the pEC50 in experiment [1] and in experiment [2] was under 4.60 in each case.
